Test results reported in US5789434A, “Derivatives of substituted 4-biarylbutyric acid as matrix metalloprotease inhibitors” (priority 1995, dated 1998).
Like-named read-outs stand apart in the source and are kept apart here.

What was measured:
MMP-3 = target: T1, MMP-3 (Homo sapiens, UniProt P08254); experiment: Primary Thiopeptilide MMP-3 Inhibition Assay; assay type: biochemical; details: for IC50: 13 nM stromelysin, x (n) = average of n determinations
T1 construct: Truncated Prostromelysin-257 was expressed in a soluble form in E.coli; made in house; host or cells: E. coli

MMP-9 = target: T2, MMP-9 (Homo sapiens, UniProt P14780); experiment: Thiopeptilide MMP-9 Inhibition Assay; assay type: biochemical; details: for inhibition at 5 µM: read-out: MMP-9: Thiopep. % inhibition
T2 construct: from tissue; host or cells: human polymorphonuclear leukocytes (PMN) from whole blood (New York Blood Center), PMA-stimulated supernatant

[1] = pH 6.5, read-out: MMP-3 Thiopep. IC50
[2] = pH 6.5, x (n) = average of n determinations, read-out: MMP-9: Thiopep. IC50

T2 sequence (P14780 107-707 limits assumed): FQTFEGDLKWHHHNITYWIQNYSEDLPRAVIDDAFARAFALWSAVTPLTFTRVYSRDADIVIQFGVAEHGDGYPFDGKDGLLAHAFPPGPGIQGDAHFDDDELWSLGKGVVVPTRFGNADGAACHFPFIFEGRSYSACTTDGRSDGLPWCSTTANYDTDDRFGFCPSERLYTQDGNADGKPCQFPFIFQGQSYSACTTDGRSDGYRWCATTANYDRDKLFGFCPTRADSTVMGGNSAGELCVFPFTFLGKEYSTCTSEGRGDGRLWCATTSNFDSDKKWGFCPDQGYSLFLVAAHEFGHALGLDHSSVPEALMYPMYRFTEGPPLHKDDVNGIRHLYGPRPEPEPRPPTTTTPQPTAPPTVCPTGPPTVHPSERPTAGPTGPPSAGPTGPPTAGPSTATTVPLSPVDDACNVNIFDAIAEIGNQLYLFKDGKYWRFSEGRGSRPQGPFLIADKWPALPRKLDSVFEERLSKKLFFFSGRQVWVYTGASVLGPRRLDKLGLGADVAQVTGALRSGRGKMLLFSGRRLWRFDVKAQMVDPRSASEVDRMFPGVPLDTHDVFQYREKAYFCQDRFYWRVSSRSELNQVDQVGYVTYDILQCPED
T1 sequence (P08254 100-274 limits assumed): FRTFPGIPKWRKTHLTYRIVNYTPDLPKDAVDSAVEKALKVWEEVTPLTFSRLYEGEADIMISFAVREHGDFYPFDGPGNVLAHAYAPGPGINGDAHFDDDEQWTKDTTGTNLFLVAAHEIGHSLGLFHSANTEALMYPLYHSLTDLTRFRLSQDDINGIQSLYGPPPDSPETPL

| IC50 (MMP-3; [1]) | IC50 (MMP-9; [2]) | SMILES | also measured |
| --- | --- | --- | --- |
|  |  | C[Si](C)(C)CC(CC(=O)c1ccc(-c2ccc(Cl)cc2)cc1)C(=O)O (stereo not drawn) [Example 133, [1,1'-Biphenyl]-4-butanoic acid, 4'-chloro-γ-oxo-α-[(trimethylsilyl)methyl]-] | IC50 (MMP-3; MMP-3 Thiopep. IC50, pH 6.5): 640 nM; IC50 (MMP-9): 10000 nM |
| 1600 nM |  | Nc1ccc(-c2ccc(C(=O)CC(CCc3ccccc3)C(=O)O)cc2)cc1 (stereo not drawn) [Example 136, [1,1'-Biphenyl]-4-butanoic acid, 4'-amino-γ-oxo-α-(2-phenylethyl)-] | inhibition at 5 µM (MMP-9): 50% |
| 150 nM | 240 nM | O=C(C[C@H](CCCc1ccccc1)C(=O)O)c1ccc(-c2ccc(Br)cc2)cc1 [Example 178, [1,1'-Biphenyl]-4-butanoic acid, 4'-bromo-γ-oxo-α-(3-phenylpropyl)-, (S)-] |  |
| 160 nM | 200 nM | O=C(CC(CCCCc1ccccc1)C(=O)O)c1ccc(-c2ccc(Cl)cc2)cc1 (stereo not drawn) [Example 179, [1,1'-Biphenyl]-4-butanoic acid, 4'-chloro-γ-oxo-α-(4-phenylbutyl)-] |  |
| 270 nM | 360 nM | O=C(CC(CCCCCc1ccccc1)C(=O)O)c1ccc(-c2ccc(Cl)cc2)cc1 (stereo not drawn) [Example 180, [1,1'-Biphenyl]-4-butanoic acid, 4'-chloro-γ-oxo-α-(5-phenylpentyl)-] |  |
| 330 nM | 290 nM | O=C(CC(CCCCCCc1ccccc1)C(=O)O)c1ccc(-c2ccc(Cl)cc2)cc1 (stereo not drawn) [Example 181, [1,1'-Biphenyl]-4-butanoic acid, 4'-chloro-γ-oxo-α-(6-phenylhexyl)-] |  |
|  |  | O=C(CC(Cc1ccc(-c2ccccc2)cc1)C(=O)O)c1ccc(-c2ccc(Cl)cc2)cc1 (stereo not drawn) [Example 182, [1,1'-Biphenyl]-4-butanoic acid, α-([1,1'-biphenyl]-4-ylmethyl)-4'-chloro-γ-oxo-] | inhibition at 5 µM (MMP-3; at 5 μM, read-out: MMP-3 Thiopep. % inhibition): 7%; inhibition at 5 µM (MMP-9): 17% |
| 270 nM | 710 nM | O=C(CC(C/C=C/c1ccccc1)C(=O)O)c1ccc(-c2ccc(Cl)cc2)cc1 (stereo not drawn) [Example 183, [1,1'-Biphenyl]-4-butanoic acid, 4'-chloro-γ-oxo-α-(3-phenyl-2-propenyl)-, (E)-] |  |
| 280 nM |  | Cc1ccc(CCCC(CC(=O)c2ccc(-c3ccc(Cl)cc3)cc2)C(=O)O)cc1 (stereo not drawn) [Example 184, [1,1'-Biphenyl]-4-butanoic acid, 4'-chloro-α[3-(4-methylphenyl)propyl]-γ-oxo-] | inhibition at 5 µM (MMP-9): 41% |
| 220 nM |  | O=C(CC(CCCc1ccc(Cl)cc1)C(=O)O)c1ccc(-c2ccc(Cl)cc2)cc1 (stereo not drawn) [Example 185, [1,1'-Biphenyl]-4-butanoic acid, 4'-chloro-α[3-(4-chlorophenyl)propyl]-γ-oxo-] | inhibition at 5 µM (MMP-9): 31% |
| 170 nM | 383 nM | COc1ccc(CCCC(CC(=O)c2ccc(-c3ccc(Cl)cc3)cc2)C(=O)O)cc1 (stereo not drawn) [Example 186, [1,1'-Biphenyl]-4-butanoic acid, 4'-chloro-α[3-(4-methoxyphenyl)propyl]-γ-oxo-] |  |
| 757 nM | 1500 nM | COc1ccc(CCC(CC(=O)c2ccc(-c3ccc(Cl)cc3)cc2)C(=O)O)cc1 (stereo not drawn) [Example 187, [1,1'-Biphenyl]-4-butanoic acid, 4'-chloro-α-[2-(4-methoxyphenyl)ethyl]-γ-oxo-] |  |
| 151 nM | 1300 nM | COc1cccc(CCC(CC(=O)c2ccc(-c3ccc(Cl)cc3)cc2)C(=O)O)c1 (stereo not drawn) [Example 188, [1,1'-Biphenyl]-4-butanoic acid, 4'-chloro-α-[2-(3-methoxyphenyl)ethyl]-γ-oxo-] |  |
| 530 nM | 600 nM | O=C(CC(CC#Cc1ccccc1)C(=O)O)c1ccc(-c2ccc(Cl)cc2)cc1 (stereo not drawn) [Example 189, [1,1'-Biphenyl]-4-butanoic acid, 4'-chloro-γ-oxo-α-(3-phenyl-2-propynyl)-] |  |
| 227 nM | 215 nM | O=C(CC(CCOCc1ccccc1)C(=O)O)c1ccc(-c2ccc(Cl)cc2)cc1 (stereo not drawn) [Example 190, [1,1'-Biphenyl]-4-butanoic acid, 4'-chloro-γ-oxo-α-[2-(phenylmethoxy)ethyl]-] |  |
| 330 nM |  | COCCOCC(CC(=O)c1ccc(-c2ccc(Cl)cc2)cc1)C(=O)O (stereo not drawn) [Example 191, [1,1'-Biphenyl]-4-butanoic acid, 4'-chloro-=-[(2-methoxyethoxy)methyl]-γ-oxo-] | inhibition at 5 µM (MMP-9): 62% |
| 140 nM | 510 nM | O=C(CC(COCc1ccccc1)C(=O)O)c1ccc(-c2ccc(Cl)cc2)cc1 (stereo not drawn) [Example 192, [1,1'-Biphenyl]-4-butanoic acid, 4'-chloro-γ-oxo-α-[(phenylmethoxy)methyl]-] |  |
| 170 nM | 200 nM | O=C(CC(CSc1cccs1)C(=O)O)c1ccc(-c2ccc(Cl)cc2)cc1 (stereo not drawn) [Example 199, [1,1'-Biphenyl]-4-butanoic acid, 4'-chloro-γ-oxo-α-[(2-thienylthio)methyl]-] |  |
| 640 nM | 2300 nM | CC(=O)SCC(CC(=O)c1ccc(-c2ccc(Cl)cc2)cc1)C(=O)O (stereo not drawn) [Example 200, [1,1'-Biphenyl]-4-butanoic acid, α-[(acetylthio)methyl]-4'-chloro-γ-oxo-] |  |
| 340 nM | 800 nM | COc1ccc(CSCC(CC(=O)c2ccc(-c3ccc(Cl)cc3)cc2)C(=O)O)cc1 (stereo not drawn) [Example 201, [1,1'-Biphenyl]-4-butanoic acid, 4'-chloro-α-[[[(4-methoxyphenyl)methyl]thio]methyl]-γ-oxo-] |  |
| 250 nM | 500 nM | O=C(CC(CSC(=O)c1ccccc1)C(=O)O)c1ccc(-c2ccc(Cl)cc2)cc1 (stereo not drawn) [Example 202, [1,1'-Biphenyl]-4-butanoic acid, α-[(benzoylthio)methyl]-4'-chloro-γ-oxo-] |  |
| 247 nM | 1200 nM | O=C(CC(CSCc1ccccc1)C(=O)O)c1ccc(-c2ccc(Cl)cc2)cc1 (stereo not drawn) [Example 203, [1,1'-Biphenyl]-4-butanoic acid, 4'-chloro-γ-oxo-α-[[(phenylmethyl)thio]methyl]-] |  |
| 213 nM | 215 nM | O=C(CC(CSc1ccc(O)cc1)C(=O)O)c1ccc(-c2ccc(Cl)cc2)cc1 (stereo not drawn) [Example 204, [1,1'-Biphenyl]-4-butanoic acid, 4'-chloro-α-[[(4-hydroxyphenyl)thio]methyl]-γ-oxo-] |  |
| 87 nM | 170 nM | O=C(CC(CSCCc1ccccc1)C(=O)O)c1ccc(-c2ccc(Cl)cc2)cc1 (stereo not drawn) [Example 205, [1,1'-Biphenyl]-4-butanoic acid, 4'-chloro-γ-oxo-α-[[(2-phenylethyl)thio]methyl]-] |  |
| 950 nM | 417 nM | COc1ccc(SCC(CC(=O)c2ccc(-c3ccc(Cl)cc3)cc2)C(=O)O)cc1 (stereo not drawn) [Example 206, [1,1'-Biphenyl]-4-butanoic acid, 4'-chloro-α-[[(4-methoxyphenyl)thio]methyl]-γ-oxo-] |  |
| 180 nM | 290 nM | O=C(CC(CSCCCc1ccccc1)C(=O)O)c1ccc(-c2ccc(Cl)cc2)cc1 (stereo not drawn) [Example 207, [1,1'-Biphenyl]-4-butanoic acid, 4'-chloro-γ-oxo-α-[[(3-phenylpropyl)thio]methyl]-] |  |
| 140 nM | 1050 nM | O=C(CC(CSc1ccc(F)cc1)C(=O)O)c1ccc(-c2ccc(Cl)cc2)cc1 (stereo not drawn) [Example 208, [1,1'-Biphenyl]-4-butanoic acid, 4'-chloro-α-[[(4-fluorophenyl)thio]methyl]-γ-oxo-] |  |
